Data as given in patent US10647680B2, “Urea compound, preparation method therefor and medical use thereof” (Ancureall Pharmaceutical (Shanghai) Co., Ltd., priority 2016, dated 2020).

How the values were obtained:
[1] = tested on: MV4-11 (FLT3 ITD+/+ mutant type); assay: In vitro growth inhibition (GI50), MV4-11; format: cell-based, human; details: Homo sapiens, MV4-11; Cell lines of leukemia; read-out: GI 50 MV4-11 FLT3 (ITD +/+)
[2] = tested on: MOLM-13 (FLT3 ITD+/− mutant type); assay: In vitro growth inhibition (GI50), MOLM-13; format: cell-based, human; details: Homo sapiens, MOLM-13; Cell lines of leukemia; read-out: GI 50 MOLM-13 FLT3 (ITD+/−)
RS4; 11 (FLT3 wild type) = assay: In vitro growth inhibition (GI50), RS4; 11; format: cell-based, human; details: Homo sapiens, RS4-11; Cell lines of leukemia; read-out: GI 50 RS4: 11 FLT3 (WT)
[3] = tested on: K562 (FLT3 negative expression, positive expression of BCR-ABL fusion protein); assay: In vitro growth inhibition (GI50), K562; format: cell-based; details: Homo sapiens, Cell lines of leukemia, read-out: GI 50 K562 BCR-ABL
[4] = tested on: RAMOS (positive expression of Brutons tyrosine protein kinase); assay: In vitro growth inhibition (GI50), RAMOS; format: cell-based; details: Homo sapiens, Cell lines of leukemia, read-out: GI 50 Ramos BTK
U937 (FLT3 wild-type) = assay: In vitro growth inhibition (GI50), U937; format: cell-based; details: Homo sapiens, U-937; Cell lines of leukemia; read-out: GI 50 U937 FLT 3(WT)
[5] = tested on: Kasumi-1 (c-Kit N822K mutant type); assay: In vitro growth inhibition (GI50), Kasumi-1; format: cell-based; details: Homo sapiens, Cell lines of leukemia, read-out: GI 50 Kasumi-1 Kit (N822K)
How it was run: (§1)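 Cells in RPMI1640 with 10% FBS, seeded at 5–10×10^4 cells/mL, exposed next day to compound at 5,000 nM down to 0.01 nM (2- or 10-fold dilutions, ≤1% solvent) for 3–5 days at 37 °C. CCK8 absorbance at 450 nm, growth rate relative to pre-treatment and solvent controls, GI50 from concentration–growth curve.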

[6] = tested on: KG-1 (expressing FGFR1OP2-FGFR1 fusion protein); assay: In vitro growth inhibition (GI50), KG-1; format: cell-based; details: Homo sapiens; Cell lines of leukemia; read-out: GI 50 KG-1 FGFR1OP 2-FGFR1
HL-60 (FLT3 wild type) = assay: In vitro growth inhibition (GI50), HL-60; format: cell-based; details: Homo sapiens, Cell lines of leukemia, read-out: GI 50 HL60 FLT3 (WT)
How it was run: as §1

[7] = tested on: OCI-AML3 (NPMc+ mutant type); assay: In vitro growth inhibition (GI50), OCI-AML3; format: cell-based; details: Homo sapiens, OCI-AML-3; Cell lines of leukemia; read-out: GI 50 OCI- AML3 NPMc+

| GI50 [1] | GI50 [2] | GI50 (RS4; 11 (FLT3 wild type)) | GI50 [3] | GI50 [4] | GI50 (U937 (FLT3 wild-type)) | GI50 (HL-60 (FLT3 wild type)) | GI50 [7] | SMILES | GI50 [5] | GI50 [6] |
| --- | --- | --- | --- | --- | --- | --- | --- | --- | --- | --- |
| 1 to 10 nM | 1 to 10 nM | > 1000 nM | > 1000 nM | > 1000 nM | > 1000 nM | > 1000 nM | > 1000 nM | CC(C)(C)c1cc(NC(=O)Nc2ccc(-n3cnc4cc(Br)cnc43)cc2)no1 [Compound 51, 1-[4-(6-bromo-imidazo[4,5-b]pyridin-3-yl)-phenyl]-3-(5-tert-butyl-isoxazol-3-yl)-urea] | > 1000 nM | > 1000 nM |
| 10 to 100 nM | 10 to 100 nM | > 1000 nM | > 1000 nM | > 1000 nM | > 1000 nM | > 1000 nM | > 1000 nM | CC(C)(C)c1cc(NC(=O)Nc2ccc(-n3cnc4ccccc43)cc2Cl)no1 [Compound 41, 1-(4-benzimidazol-1-yl-2-chloro-phenyl)-3-(5-tert-butyl-isoxazol-3-yl)-urea] | > 1000 nM | > 1000 nM |
| 10 to 100 nM | 10 to 100 nM | 100 to 1000 nM | 100 to 1000 nM | > 1000 nM | > 1000 nM | > 1000 nM | 100 to 1000 nM | CC(C)(C)c1cc(NC(=O)Nc2ccc(-n3cnc4ccccc43)cc2)n(-c2ccc(F)cc2)n1 [Compound 108, 1-(4-benzimidazol-1-yl-phenyl)-3-[5-tert-butyl-2-(4-fluoro-phenyl)-2H-pyrazol-3-yl]-urea] | > 1000 nM | > 1000 nM |
| 10 to 100 nM | 10 to 100 nM | > 1000 nM | > 1000 nM | > 1000 nM | > 1000 nM | > 1000 nM | 100 to 1000 nM | Cc1ccnc2c1ncn2-c1ccc(NC(=O)Nc2cc(C(C)(C)C)on2)cc1 [Compound 55, 1-(5-tert-butyl-isoxazol-3-yl)-3-[4-(7-methylimidazo[4,5-b]pyridin-3-yl)-phenyl]-urea] | > 1000 nM | > 1000 nM |
| 1 to 10 nM | 1 to 10 nM | > 1000 nM | > 1000 nM | > 1000 nM | > 1000 nM | > 1000 nM | > 1000 nM | CC(C)(C)c1cc(NC(=O)Nc2ccc(-n3cnc4ccccc43)nc2)no1 [Compound 42, 1-(6-benzimidazol-1-yl-pyridin-3-yl)-3-(5-tert-butyl-isoxazol-3-yl)-urea] | > 1000 nM | > 1000 nM |
| 0.1 to 1 nM | 0.1 to 1 nM | > 1000 nM | > 1000 nM | > 1000 nM | > 1000 nM | > 1000 nM | > 1000 nM | CC(C)Oc1ccc2c(c1)ncn2-c1ccc(NC(=O)Nc2cc(C(C)(C)C)on2)cc1 [Compound 8, 1-(5-tert-butyl-isoxazol-3-yl)-3-[4-(5-isopropoxy-benzimidazol-1-yl)-phenyl]-urea] | > 1000 nM | > 1000 nM |
| 0.1 to 1 nM | 0.1 to 1 nM | 100 to 1000 nM | 100 to 1000 nM | > 1000 nM | > 1000 nM | > 1000 nM | > 1000 nM | CC(C)(C)c1cc(NC(=O)Nc2ccc(-n3cnc4cc(F)ccc43)cc2)[nH]n1 [Compound 69, 1-(5-tert-butyl-2H-pyrazol-3-yl)-3-[4-(5-fluoro-benzimidazol-1-yl)-phenyl]-urea] | > 1000 nM | > 1000 nM |
| 100 to 1000 nM | 100 to 1000 nM | > 1000 nM | > 1000 nM | > 1000 nM | > 1000 nM | > 1000 nM | > 1000 nM | Cc1cc(NC(=O)Nc2ccc(-n3cnc4ccccc43)cc2)n[nH]1 [Compound 64, 1-(4-benzimidazol-1-yl-phenyl)-3-(5-methyl-1H-pyrazol-3-yl)-urea] | > 1000 nM | 100 to 1000 nM |
| 1 to 10 nM | 1 to 10 nM | > 1000 nM | > 1000 nM | > 1000 nM | > 1000 nM | > 1000 nM | > 1000 nM | CC(C)(C)c1cc(NC(=O)Nc2ccc(-n3cnc4cc(OCc5cccc(F)c5)ccc43)cc2)[nH]n1 [Compound 93, 1-(5-tert-butyl-2H-pyrazol-3-yl)-3-{4-[5-(3-fluoro-benzyloxy)-benzimidazol-1-yl]-phenyl]-urea] | > 1000 nM | > 1000 nM |
| 0.1 to 1 nM | 0.1 to 1 nM | > 1000 nM | > 1000 nM | > 1000 nM | > 1000 nM | > 1000 nM | > 1000 nM | CC(C)(C)c1cc(NC(=O)Nc2ccc(-n3cnc4cc(OC(=O)N5CCOCC5)ccc43)cc2)no1 [Compound 15, 1-{4-[3-(5-tert-butyl-isoxazol-3-yl)-carbamido]-phenyl}-1H-benzimidazol-5-yl morpholin-4-carboxylate] | > 1000 nM | > 1000 nM |
| 1 to 10 nM | 1 to 10 nM | 100 to 1000 nM | 100 to 1000 nM | > 1000 nM | > 1000 nM | > 1000 nM | > 1000 nM | Cc1ccc2c(c1)ncn2-c1ccc(NC(=O)Nc2cc(C(C)(C)C)on2)cc1 [Compound 24, 1-(5-tert-butyl-isoxazol-3-yl)-3-[4-(5-methyl-benzimidazol-1-yl)-phenyl]-urea] | > 1000 nM | > 1000 nM |
| 1 to 10 nM | 1 to 10 nM | > 1000 nM | > 1000 nM | > 1000 nM | > 1000 nM | > 1000 nM | > 1000 nM | CC(C)(C)c1cc(NC(=O)Nc2ccc(-n3cnc4cc(Oc5nsnc5N5CCOCC5)ccc43)cc2)[nH]n1 [Compound 95, 1-(5-tert-butyl-2H-pyrazol-3-yl)-3-{4-[5-(4-morpholin-4-yl-[1,2,5]thiadiazol-3-yloxy)-benzimidazol-1-yl]-phenyl}-urea] | > 1000 nM | > 1000 nM |
| 1 to 10 nM | 1 to 10 nM | > 1000 nM | > 1000 nM | > 1000 nM | > 1000 nM | > 1000 nM | > 1000 nM | CC(C)(C)c1cc(NC(=O)Nc2ccc(-n3cnc4cc(C(F)(F)F)ccc43)cc2)[nH]n1 [Compound 70, 1-(5-tert-butyl-2H-pyrazol-3-yl)-3-[4-(5-trifluoromethyl-benzimidazol-1-yl)-phenyl]-urea] | > 1000 nM | > 1000 nM |
| 0.1 to 1 nM | 0.1 to 1 nM | > 1000 nM | > 1000 nM | > 1000 nM | > 1000 nM | > 1000 nM | > 1000 nM | CC(C)(C)c1cc(NC(=O)Nc2ccc(-n3cnc4cc(OCC#N)ccc43)cc2)[nH]n1 [Compound 83, 1-(5-tert-butyl-2H-pyrazol-3-yl)-3-[4-(5-cyanomethoxy-benzimidazol-1-yl)-phenyl]-urea] | > 1000 nM | > 1000 nM |
| 0.1 to 1 nM | 0.1 to 1 nM | > 1000 nM | > 1000 nM | > 1000 nM | > 1000 nM | > 1000 nM | > 1000 nM | CC(C)(C)c1cc(NC(=O)Nc2ccc(-n3cnc4ccccc43)cc2)n(-c2ccccc2)n1 [Compound 104, 1-(4-benzimidazol-1-yl-phenyl)-3-(5-tert-butyl-2-phenyl-2H-pyrazol-3-yl)-urea] | > 1000 nM | > 1000 nM |
| 100 to 1000 nM | 100 to 1000 nM | > 1000 nM | > 1000 nM | > 1000 nM | > 1000 nM | > 1000 nM | > 1000 nM | CC(C)(C)c1cc(NC(=O)Nc2cc(F)c(-n3cnc4ccccc43)c(F)c2)no1 [Compound 40, 1-(4-benzimidazol-1-yl-3,5-difluoro-phenyl)-3-(5-tert-butyl-isoxazol-3-yl)-urea] | > 1000 nM | > 1000 nM |

| SMILES | GI50 [1] | GI50 [2] | GI50 (RS4; 11 (FLT3 wild type)) | GI50 [3] | GI50 [4] | GI50 (U937 (FLT3 wild-type)) | GI50 (HL-60 (FLT3 wild type)) | GI50 [7] | GI50 [5] | GI50 [6] |
| --- | --- | --- | --- | --- | --- | --- | --- | --- | --- | --- |
| CC(C)(C)c1cc(NC(=O)Nc2ccc(-n3cnc4cc(OCCCCc5nnnn5C5CCCCC5)ccc43)cc2)[nH]n1 [Compound 94, 1-(5-tert-butyl-2H-pyrazol-3-yl)-3-(4-{5-[4-(1-cyclohexyl-1H-tetrazol-5-yl)-butoxy]-benzimidazol-1-yl}-phenyl)-urea] | 1 to 10 nM | 1 to 10 nM | > 1000 nM | > 1000 nM | > 1000 nM | > 1000 nM | > 1000 nM | > 1000 nM | > 1000 nM | > 1000 nM |
